In patent US11110158B2, “Prostate-associated antigens and vaccine-based immunotherapy regimens” (Pfizer Inc., priority 2012, dated 2021):
Where two headings read alike, the source gives them in different places.

Key:
native PSMA protein = test: Sandwich ELISA, anti-PSMA antibody titers in serum of vaccinated Pasteur mice; assay type: in vivo, mouse
Procedure: The standard sandwich ELISA assay was done using an automated Biotek system. The plates were coated with 25 μl of native PSMA protein at a 1.0 μg/ml in PBS overnight, the plates were washed and blocked with 35 μl/well of 5% FBS 1×PBS-T 0.05% and incubated for 1 hour at RT on a shaker at 600 RPM. The blocking media was decanted and serial dilute vaccinated mouse serum with half log dilutions in 5% FBS 1×PBS-T 0.05% starting at 1:100 or 1:500 were made and 25μ samples of the diluted serum were added to each well of the 96 well plates and incubated for 1 hour at RT on a shaker at 600 RPM. The plates were washed 3 times with 75 ul/well in 1×PBS-T 0.05% using the Biotek ELx405, and 25 μl/well of 1:30,000 diluted anti-mouse IgG HRP (AbCam cat #ab20043) secondary antibody (diluted in 1×PBS-T 0.05%) was added to each well of the 96 well plates and incubated for 1 hour at RT on a shaker at 600 RPM. Plates were washed 5× with 75 ul/well in 1×PBS-T 0.05% using the Biotek EIx405. TMB Substrate was diluted at 1:10 and 25 μl was added to each well and incubated at RT for 30 minutes. The reaction was stopped by adding 12.5 μl/well of 1M H2SO4. Plates were read using the Spectramax Plus at 450 nm wavelength. Data were reported as titers and these could be reported as first positive (average and both values above 5% FBS PBS+3 time Standard Deviation) and/or as calculated titers at OD of 0.5 or 1.0. Serum from irrelevant vaccinated mice were used as negative controls.
Eight- to 10-week old Pasteur mice were immunized using PMED method with the various plasmid DNAs expressing shuffled PSMA modified antigens in a prime/boost/boost regimen, two weeks apart between each vaccination as described in Example 1F. Antigen specific T and B cell responses were measured 7 days after the last immunization in an interferon-gamma (IFNγ) ELISPOT assay and sandwich ELISA respectively.

293 cells = test: Expression of PSMA constructs in transfected 293 cells by FACS; assay type: cell-based; conditions: 293 cells transfected with PJV7563 vector, stained with mouse anti-PSMA antibody three days later; cell surface expression
Procedure: The expression of the PSMA cytosolic, secreted, and modified antigens was determined by FACS. Mammalian 293 cells were transfected with the PJV7563 PMED vectors encoding the various immunogenic PSMA polypeptides. Three days later, the 293 cells were stained with mouse anti-PSMA antibody, followed with a fluorescent conjugated (FITC) rat anti-mouse secondary antibody.

[1] = parameters: species or system Indian Rhesus macaques; conditions: rhesus monkey, in vivo, 10 mg/kg
Procedure: Three animals per treatment group were injected with the anti-CTLA-4 antibody Tremelimumab at 10 mg/kg, either with a single intravenous injection into the saphenous vein or multiple 0.2 ml intradermal bilateral injections in the upper thigh in proximity to the inguinal draining lymph nodes. Blood samples were collected at 0, 1, 2, 4, 8, 12, 24, and 48 hrs post injection into 2.0 ml vaccutainer tubes containing lithium heparin as the anticoagulant. Plasma was collected from the supernatant in the vaccutainer tubes after centrifugation at 1500×g at 4° C. for 10 min. The levels of Tremelimumab in the plasma was measured by a quantitative ELISA assay according to the procedure provided below.
Tremelimumab Quantitative ELISA Assay Procedure. The 384-well high bind assay plates (VWR-Greiner Bio-One Cat #82051-264) were coated with 25 μl/well of CD-152 (CTLA-4; Ancell Immunology Research Products Cat #501-020) at 1.0 μg/ml in 100 mM carbonate-bicarbonate coating buffer and incubated overnight at 4° C. […] The colorimetric reaction was stopped by addition of 12.5 μL/well 1N Sulfuric acid and the absorbance then read at 450 nm. The amount of Tremelimumab in each sample was quantified using the standard curve with 0.27 to 67 ng/mL used as the quantitative range.

Substance	ELISA (OD = 1) Average (+/−SD) (native PSMA protein; Table 3, anti-PSMA antibody titer calculated at OD of 1, Pasteur mice)	# of positive (native PSMA protein; Table 3, mice with anti-PSMA antibody response by ELISA / N)	ELISA (OD = 0.5) (native PSMA protein; Table 10, anti-PSMA antibody titer calculated at OD of 0.5, Pasteur mice)	# of positive (native PSMA protein; Table 10, mice with anti-PSMA antibody response by ELISA / mice tested)	Average mean fluorescent intensity (293 cells)	AUC0-24 [1] [µg·h/mL]	AUC0-24 ([1]; iv) [µg·h/mL]
PSMA modified: membrane-bound polypeptide of amino acids 15-750 of human PSMA, SEQ ID NO: 9; tested as DNA construct	1067 (518)	4/4	1159 (802)	7/7	12270		
Tremelimumab: fully human IgG2 anti-CTLA-4 monoclonal antibody, CAS 745013-59-6, SEQ ID NOs:42 and 43						4900	7200
